This note sets out measurements from ChEMBL document CHEMBL1201861, “Genomics of Drug Sensitity in Cancer screening data, Wellcome Trust Sanger Institute”.

A word on the IC50: it is the midpoint of a concentration-inhibition curve. A higher IC50 goes with a need for much substance.

The structures appear in SMILES notation.

In one assay the test system is Caov-3 cell line. The assay can be described thus: cells. To be noted: Homo sapiens. The format is functional, cell-based.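 Further: cell growth inhibition read out by a viability assay.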
The test system of a further assay is HMV-2 cell line. The assay can be described thus: cells. In kind it is functional, cell-based, Homo sapiens. The note with it: Homo sapiens, HMV-2.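 Further: growth inhibition of HMV-II cells, read out with a cell viability assay.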
The subject of the next assay is KU812 cell line. The assay can be described thus: cells. The format is functional, cell-based. The note with it: Homo sapiens.
The next assay has as its system KYSE-150 cell line. In words: cells. The format is functional, cell-based, Homo sapiens. The note with it: Homo sapiens, KYSE-150.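 Further: growth inhibition of human KYSE-150 cells, read out with a cell viability assay.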
In a further assay the test system is KYSE-520 cell line. The assay can be described thus: cells. In kind it is functional, cell-based, Homo sapiens. To be noted: Homo sapiens, KYSE-520.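 Further: growth inhibition of human KYSE-520 cells, read out with a viability assay.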
The test system of the next assay is KYSE-70 cell line. The assay can be described thus: cells. The format is functional, cell-based, Homo sapiens. To be noted: Homo sapiens, KYSE-70.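 Further: cell viability assay read-out, with IC50 expressing suppression of KYSE-70 cell growth.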
Another assay deals with LCLC-103H cell line. The assay can be described thus: cells. The format is functional, cell-based, Homo sapiens. The note with it: Homo sapiens, LCLC-103H.
For another assay, the system named is LXF-289 cell line. In words: cells. In kind it is functional, cell-based, Homo sapiens. To be noted: Homo sapiens, LXF-289.
Another assay deals with A253 cell line. The assay can be described thus: cells. The format is functional, cell-based, Homo sapiens. To be noted: Homo sapiens, A253.
For another assay, the system named is BC1 cell line. The assay can be described thus: SANGER: Inhibition of human BC-1 cell growth in a cell viability assay. In kind it is functional, cell-based.

Description for A253 cell line: SANGER: Inhibition of human A253 cell growth in a cell viability assay.
Description for Caov-3 cell line: SANGER: Inhibition of human Caov-3 cell growth in a cell viability assay.
Description for HMV-2 cell line: SANGER: Inhibition of human HMV-II cell growth in a cell viability assay.
Description for KU812 cell line: SANGER: Inhibition of human KU812 cell growth in a cell viability assay.
Description for KYSE-150 cell line: SANGER: Inhibition of human KYSE-150 cell growth in a cell viability assay.
Description for KYSE-520 cell line: SANGER: Inhibition of human KYSE-520 cell growth in a cell viability assay.
Description for KYSE-70 cell line: SANGER: Inhibition of human KYSE-70 cell growth in a cell viability assay.
Description for LCLC-103H cell line: SANGER: Inhibition of human LCLC-103H cell growth in a cell viability assay.
Description for LXF-289 cell line: SANGER: Inhibition of human LXF-289 cell growth in a cell viability assay.

In the case of `C[C@@]1(C(=O)Nc2ccc(F)nc2)CCCN1c1nc(Nc2cc(C3CC3)n[nH]2)c2cccn2n1` [BMS-754807], the IC50 was over 2560 nM in the assay on Caov-3 cell line; 183 nM with HMV-2 cell line; over 2560 nM in the assay with KU812 cell line; 2250 nM with KYSE-150 cell line; over 2560 nM in the assay with KYSE-520 cell line; over 2560 nM in the assay with KYSE-70 cell line. Also, the IC50 in the assay on LCLC-103H cell line was 788 nM; in the assay on LXF-289 cell line, over 2560 nM; in the assay with A253 cell line it was over 2560 nM; in the assay with BC1 cell line it was 587 nM.
